Measured values from patent US10781204B2, “TYK2 inhibitors and uses thereof” (Nimbus Lakshmi, Inc., priority 2015, dated 2020).

Tests used:
[1] = target: JAK2 (Homo sapiens (Human), UniProt O60674); assay: JAK2 radioactive kinase assay; type: biochemical; conditions: ATP 10 μM
Procedure, shortened: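 Radiometric assay in Hepes pH 7.5, MgCl2, EGTA, Brij35, BSA, DTT, 1% DMSO, with 10 μM [33P]ATP, 120 min at room temp; P81 paper capture and counting. […]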

[2] = tested on: Tyk2-pSTAT4 (IL-12 induced pSTAT4); assay: IL-12 induced pSTAT4 in human PBMC; type: cell-based; conditions: 1.7 ng/mL IL-12, 30 minutes
Procedure, shortened: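 Thawed human PBMC (200,000 cells/well, serum-containing medium) preincubated with compound 1 hr at 37 C, 0.1% DMSO final. Stimulated with 1.7 ng/mL IL-12 (final) for 30 minutes; pSTAT4 and total STAT4 in lysates measured by MSD immunoassay.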

[3] = tested on: JAK2-pSTAT5 (GM-CSF induced pSTAT5); assay: GM-CSF induced pSTAT5 in human PBMC; type: cell-based; conditions: Homo sapiens, PBMC, 20 min, 5 ng/mL GM-CSF
Procedure, shortened: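 Thawed human PBMC, 200,000 per well in serum-containing medium, were preincubated 1 hr at 37 C with compound in 0.1% DMSO. GM-CSF at 5 ng/mL final was added for 20 minutes, then pSTAT5 and total STAT5 in lysates were measured by MSD immunoassay.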

[4] = target: TYK2 (Homo sapiens (Human), UniProt P29597); assay: Tyk2 radioactive kinase assay; type: biochemical; conditions: ATP 10 μM
Chain of TYK2 (P29597 whole entry): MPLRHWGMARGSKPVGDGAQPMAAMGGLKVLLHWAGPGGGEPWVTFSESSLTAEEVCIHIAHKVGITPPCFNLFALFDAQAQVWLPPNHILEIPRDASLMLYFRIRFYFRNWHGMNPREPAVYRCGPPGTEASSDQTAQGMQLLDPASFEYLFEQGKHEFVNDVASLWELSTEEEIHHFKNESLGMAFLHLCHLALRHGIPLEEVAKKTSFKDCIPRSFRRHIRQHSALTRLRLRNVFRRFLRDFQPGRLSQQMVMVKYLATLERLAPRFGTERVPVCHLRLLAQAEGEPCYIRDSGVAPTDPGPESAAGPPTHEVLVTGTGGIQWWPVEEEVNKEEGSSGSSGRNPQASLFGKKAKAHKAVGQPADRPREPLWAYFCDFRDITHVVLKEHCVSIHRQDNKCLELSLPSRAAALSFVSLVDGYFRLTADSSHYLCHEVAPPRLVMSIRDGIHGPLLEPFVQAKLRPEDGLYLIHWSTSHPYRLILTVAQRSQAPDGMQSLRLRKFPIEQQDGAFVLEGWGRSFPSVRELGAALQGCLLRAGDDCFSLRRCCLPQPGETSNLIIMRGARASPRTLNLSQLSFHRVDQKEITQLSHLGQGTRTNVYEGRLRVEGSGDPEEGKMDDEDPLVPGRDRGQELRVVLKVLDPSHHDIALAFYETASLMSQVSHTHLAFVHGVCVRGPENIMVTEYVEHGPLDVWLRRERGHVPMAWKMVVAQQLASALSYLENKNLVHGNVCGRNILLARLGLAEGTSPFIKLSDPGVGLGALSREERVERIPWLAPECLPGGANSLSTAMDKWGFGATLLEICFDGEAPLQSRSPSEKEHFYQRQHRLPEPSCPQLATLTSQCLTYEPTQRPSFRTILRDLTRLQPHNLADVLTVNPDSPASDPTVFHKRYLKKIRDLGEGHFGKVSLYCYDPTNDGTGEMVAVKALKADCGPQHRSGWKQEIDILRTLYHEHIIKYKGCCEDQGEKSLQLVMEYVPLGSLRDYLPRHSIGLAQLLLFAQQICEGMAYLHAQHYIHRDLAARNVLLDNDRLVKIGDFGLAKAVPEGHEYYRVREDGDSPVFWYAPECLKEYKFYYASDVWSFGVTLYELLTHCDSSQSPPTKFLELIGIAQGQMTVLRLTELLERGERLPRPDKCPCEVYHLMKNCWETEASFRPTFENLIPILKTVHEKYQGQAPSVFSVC
Procedure, shortened: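 Recombinant human TYK2 (Invitrogen) was mixed with 20 μM peptide substrate in a buffer of 20 mM Hepes pH 7.5, 10 mM MgCl2, 1 mM EGTA, 0.02% Brij35, 0.02 mg/mL BSA, 0.1 mM […], 2 mM DTT and 1% DMSO, and compounds in DMSO were added. Adding ^33P-ATP (10 μM ATP) started the reaction, which ran 120 min at room temperature. Mixtures were then spotted onto P81 ion-exchange paper, washed thoroughly in 0.75% phosphoric acid, and counted for radioactivity.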

Chain of JAK2 (O60674 whole entry): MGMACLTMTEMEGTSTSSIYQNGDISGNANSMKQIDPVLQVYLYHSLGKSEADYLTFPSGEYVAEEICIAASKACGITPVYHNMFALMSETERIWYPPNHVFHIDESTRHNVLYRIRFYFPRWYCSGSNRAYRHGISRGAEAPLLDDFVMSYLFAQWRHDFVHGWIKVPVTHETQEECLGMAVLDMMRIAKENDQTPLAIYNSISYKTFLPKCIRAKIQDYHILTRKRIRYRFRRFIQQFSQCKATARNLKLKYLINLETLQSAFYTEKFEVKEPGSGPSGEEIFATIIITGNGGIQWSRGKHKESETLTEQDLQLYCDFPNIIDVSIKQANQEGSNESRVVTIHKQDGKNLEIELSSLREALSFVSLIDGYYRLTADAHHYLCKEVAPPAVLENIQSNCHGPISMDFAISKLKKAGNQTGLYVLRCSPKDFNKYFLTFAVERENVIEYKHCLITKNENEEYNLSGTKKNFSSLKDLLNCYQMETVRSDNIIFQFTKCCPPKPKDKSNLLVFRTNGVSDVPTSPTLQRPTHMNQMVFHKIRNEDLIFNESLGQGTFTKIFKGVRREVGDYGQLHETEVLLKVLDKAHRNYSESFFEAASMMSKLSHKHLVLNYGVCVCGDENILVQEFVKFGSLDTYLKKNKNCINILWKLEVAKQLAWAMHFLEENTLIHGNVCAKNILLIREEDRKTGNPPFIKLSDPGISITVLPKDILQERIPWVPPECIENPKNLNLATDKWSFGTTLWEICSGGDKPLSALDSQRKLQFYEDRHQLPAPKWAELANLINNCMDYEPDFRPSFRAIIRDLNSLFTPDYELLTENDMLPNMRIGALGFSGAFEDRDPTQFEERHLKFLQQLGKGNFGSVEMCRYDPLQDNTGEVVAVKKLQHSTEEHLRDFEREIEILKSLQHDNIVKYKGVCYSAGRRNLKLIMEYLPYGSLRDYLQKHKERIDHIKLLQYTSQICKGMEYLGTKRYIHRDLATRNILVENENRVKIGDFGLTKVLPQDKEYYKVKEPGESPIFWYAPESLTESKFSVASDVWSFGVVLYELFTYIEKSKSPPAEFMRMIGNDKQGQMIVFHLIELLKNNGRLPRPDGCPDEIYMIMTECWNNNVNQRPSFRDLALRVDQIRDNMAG

Ki [1] [nM]	EC50 ([2]; Homo sapiens, PBMC, 0.5 h) [nM]	EC50 [3] [nM]	Ki [4] [nM]	EC50 [2] [nM]	Compound
10 to 100	30 to 100	100 to 2000	0.1 to 10	–	N#Cc1cccc(F)c1-c1cc(-n2ccc(N3CCCC(C#N)C3)n2)c2c(n1)CNC2=O (stereo not drawn) [I-95, 1-(1-(2-(2-cyano-6-fluorophenyl)-5-oxo-6,7-dihydro-5H-pyrrolo[3,4-b]pyridin-4-yl)-1H-pyrazol-3-yl)piperidine-3-carbonitrile]
0.1 to 10	30 to 100	> 2000	0.009 to 0.1	–	C[C@H]1[C@H](O)CCN1c1ccn(-c2cc(-c3c(F)cccc3C#N)nc3c2C(=O)NC3)n1 [I-150, 3-fluoro-2-(4-(3-((2S,3R)-3-hydroxy-2-methylpyrrolidin-1-yl)-1H-pyrazol-1-yl)-5-oxo-6,7-dihydro-5H-pyrrolo[3,4-b]pyridin-2-yl)benzonitrile]
100 to 1000	100 to 2000	> 2000	10 to 100	–	N#Cc1cccc(F)c1-c1cc(-c2ccn([C@@H]3COC[C@@H]3O)n2)c2c(n1)CNC2=O [I-234, 3-fluoro-2-(4-(1-((3R,4R)-4-hydroxytetrahydrofuran-3-yl)-1H-pyrazol-3-yl)-5-oxo-6,7-dihydro-5H-pyrrolo[3,4-b]pyridin-2-yl)benzonitrile]
0.1 to 10	100 to 2000	100 to 2000	0.1 to 10	–	CS(=O)(=O)NC1CCN(c2ccn(-c3cc(-c4c(F)cccc4C#N)nc4c3C(=O)NC4)n2)C1 (stereo not drawn) [I-120, N-(1-(1-(2-(2-cyano-6-fluorophenyl)-5-oxo-6,7-dihydro-5H-pyrrolo[3,4-b]pyridin-4-yl)-1H-pyrazol-3-yl)pyrrolidin-3-yl)methanesulfonamide]
0.1 to 10	–	> 2000	0.1 to 10	100 to 2000	N#Cc1cccc(F)c1-c1cc(-n2ccc(N3CC[C@@H](O)[C@@H](O)C3)n2)c2c(n1)CNC2=O [I-137, 2-(4-(3-((3S,4R)-3,4-dihydroxypiperidin-1-yl)-1H-pyrazol-1-yl)-5-oxo-6,7-dihydro-5H-pyrrolo[3,4-b]pyridin-2-yl)-3-fluorobenzonitrile]
10 to 100	100 to 2000	> 2000	0.1 to 10	–	[2H]C1([2H])N(c2ccn(-c3cc(-c4c(F)cccc4C#N)nc4c3C(=O)NC4)n2)C([2H])([2H])C(C)(O)C([2H])([2H])C1([2H])[2H] (stereo not drawn) [I-186, 3-fluoro-2-(4-(3-(3-hydroxy-3-methylpiperidin-1-yl-2,2,4,4,5,5,6,6-d8)-1H-pyrazol-1-yl)-5-oxo-6,7-dihydro-5H-pyrrolo[3,4-b]pyridin-2-yl)benzonitrile]
10 to 100	30 to 100	> 2000	0.1 to 10	–	N#Cc1cccc(F)c1-c1cc(-n2ccc(N3CCC[C@@H](O)[C@@H](O)C3)n2)c2c(n1)CNC2=O [I-179, 2-(4-(3-((3S,4R)-3,4-dihydroxyazepan-1-yl)-1H-pyrazol-1-yl)-5-oxo-6,7-dihydro-5H-pyrrolo[3,4-b]pyridin-2-yl)-3-fluorobenzonitrile]
10 to 100	100 to 2000	100 to 2000	0.1 to 10	–	CN1CCN(C2CCCN(c3ccn(-c4cc(-c5c(F)cccc5C#N)nc5c4C(=O)NC5)n3)C2)CC1 (stereo not drawn) [I-147, 3-fluoro-2-(4-(3-(3-(4-methylpiperazin-1-yl)piperidin-1-yl)-1H-pyrazol-1-yl)-5-oxo-6,7-dihydro-5H-pyrrolo[3,4-b]pyridin-2-yl)benzonitrile]
10 to 100	30 to 100	100 to 2000	0.009 to 0.1	–	C[C@@]1(O)CCCN(c2ccn(-c3cc(-c4c(F)cccc4C#N)nc4c3C(=O)NC4)n2)C1 [I-71, (R)-3-fluoro-2-(4-(3-(3-hydroxy-3-methylpiperidin-1-yl)-1H-pyrazol-1-yl)-5-oxo-6,7-dihydro-5H-pyrrolo[3,4-b]pyridin-2-yl)benzonitrile]
0.1 to 10	30 to 100	> 2000	0.1 to 10	–	[2H]C1([2H])CC(O)(C([2H])([2H])[2H])C([2H])([2H])N1c1ccn(-c2cc(-c3c(F)cccc3C#N)nc3c2C(=O)NC3)n1 (stereo not drawn) [I-170, 3-fluoro-2-(4-(3-(3-hydroxy-3-(methyl-d3)pyrrolidin-1-yl-2,2,5,5-d4)-1H-pyrazol-1-yl)-5-oxo-6,7-dihydro-5H-pyrrolo[3,4-b]pyridin-2-yl)benzonitrile]
10 to 100	30 to 100	100 to 2000	0.1 to 10	–	[2H]C1([2H])NC(=O)c2c(-n3ccc(N4C([2H])([2H])C[C@](O)(C([2H])([2H])[2H])C4([2H])[2H])n3)cc(-c3c(F)cccc3C#N)nc21 [I-207, (R)-3-fluoro-2-(4-(3-(3-hydroxy-3-(methyl-d3)pyrrolidin-1-yl-2,2,5,5-d4)-1H-pyrazol-1-yl)-5-oxo-6,7-dihydro-5H-pyrrolo[3,4-b]pyridin-2-yl-7,7-d2)benzonitrile]
10 to 100	100 to 2000	100 to 2000	0.1 to 10	–	N#Cc1cccc(F)c1-c1cc(-n2cc(F)c(N3CCC(O)C3)n2)c2c(n1)CNC2=O (stereo not drawn) [I-185, 3-fluoro-2-(4-(4-fluoro-3-(3-hydroxypyrrolidin-1-yl)-1H-pyrazol-1-yl)-5-oxo-6,7-dihydro-5H-pyrrolo[3,4-b]pyridin-2-yl)benzonitrile]
10 to 100	30 to 100	100 to 2000	0.1 to 10	–	CC1(C)[C@@H](O)CCN1c1ccn(-c2cc(-c3c(F)cccc3C#N)nc3c2C(=O)NC3)n1 [I-205, (S)-3-fluoro-2-(4-(3-(3-hydroxy-2,2-dimethylpyrrolidin-1-yl)-1H-pyrazol-1-yl)-5-oxo-6,7-dihydro-5H-pyrrolo[3,4-b]pyridin-2-yl)benzonitrile]
0.1 to 10	30 to 100	100 to 2000	0.1 to 10	–	[2H]C1([2H])C[C@@](O)(C([2H])([2H])[2H])C([2H])([2H])N1c1ccn(-c2cc(-c3c(F)cccc3C#N)nc3c2C(=O)NC3)n1 [I-183, (S)-3-fluoro-2-(4-(3-(3-hydroxy-3-(methyl-d3)pyrrolidin-1-yl-2,2,5,5-d4)-1H-pyrazol-1-yl)-5-oxo-6,7-dihydro-5H-pyrrolo[3,4-b]pyridin-2-yl)benzonitrile]
0.1 to 10	100 to 2000	100 to 2000	0.1 to 10	–	N#Cc1cccc(F)c1-c1cc(-n2ccc(N3CCC(O)(C(=O)N4CCCC4)C3)n2)c2c(n1)CNC2=O (stereo not drawn) [I-191, 3-fluoro-2-(4-(3-(3-hydroxy-3-(pyrrolidine-1-carbonyl)-pyrrolidin-1-yl)-1H-pyrazol-1-yl)-5-oxo-6,7-dihydro-5H-pyrrolo[3,4-b]pyridin-2-yl)benzonitrile]
